What is called inhibition is the share of the control response that was lost under treatment.

Structures can show the parent of a compound that is named as a salt.

CRAC channels, sequence (Q96D31 whole entry): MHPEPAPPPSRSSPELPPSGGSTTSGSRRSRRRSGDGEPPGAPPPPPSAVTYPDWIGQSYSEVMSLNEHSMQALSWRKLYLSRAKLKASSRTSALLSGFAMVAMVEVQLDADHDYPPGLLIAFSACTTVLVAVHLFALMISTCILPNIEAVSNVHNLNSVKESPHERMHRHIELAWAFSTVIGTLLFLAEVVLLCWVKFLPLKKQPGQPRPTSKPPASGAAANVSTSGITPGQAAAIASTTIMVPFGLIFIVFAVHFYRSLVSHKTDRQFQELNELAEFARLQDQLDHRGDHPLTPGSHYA

This assay addresses CRAC channels (Homo sapiens (Human), UniProt Q96D31). The assay can be described thus: In-vitro CRAC channel inhibition assay in Jurkat cells (thapsigargin-induced calcium influx). It is filed as cell-based. The protocol: 1A. In-Vitro CRAC Channel Inhibition Assay in Jurkat Cells
Plate is incubated at 37° C./5% CO2 for 30 min followed by further 15 min incubation at room temperature. Test compounds (DMSO stocks diluted in Ca^2+ and Mg^2+ free Hanks buffer) at desired concentrations were added to the wells and incubated for 15 min. Thapsigargin (1 μM final concentration) was added to the wells and incubated for 15 min to inhibit the Sarco-endoplasmic reticulum Ca^2+ ATPase pump thereby depleting endoplasmic calcium and raising cytosolic calcium concentrations. Store-operated calcium entry was initiated by adding extracellular Ca^2+ to a final concentration of 1.8 mM. Fluorescence was monitored over 5 min on a plate reader (BMG Labtech., Germany) with excitation at 485 nm and; an emission wavelength at 520 nm. Data were analyzed using GraphPad Prism. IC50 for each compound was determined based on the percent inhibition of thapsigargin-induced calcium influx into cells.
On to `Cc1ccccc1C(=O)Nc1ccc(-n2nc(C3CC3)cc2C2CC2)cc1` [Example 7, N-[4-(3,5-dicyclopropyl-1H-pyrazol-1-yl)phenyl]-2-methylbenzamide], for which the inhibition at 1 µM came to 99%.
Same read-out and setting: the result for `Cc1ncncc1C(=O)Nc1ccc(-n2nc(C3CC3)cc2C2CC2)c(F)c1` [Example 36, N-[4-(3,5-dicyclopropyl-1H-pyrazol-1-yl)-3-fluorophenyl]-4-methylpyrimidine-5-carboxamide] reads 68.2%; that for `O=C(Nc1ccc(-n2nc(C(F)(F)F)cc2C2CC2)cc1)c1cccc(F)c1F` [Example 61, N-{4-[5-cyclopropyl-3-(trifluoromethyl)-1H-pyrazol-1-yl]phenyl}-2,3-difluorobenzamide], 100%; that for `CSc1ccc(Cl)c(C(=O)Nc2ccc(-n3nc(C4CC4)cc3C3CC3)cc2)c1` [Example 12, 2-chloro-N-[4-(3,5-dicyclopropyl-1H-pyrazol-1-yl)phenyl]-5-(methylthio)benzamide], 90.8%.
In the case of `Cc1oncc1C(=O)Nc1ccc(-n2nc(C(F)(F)F)cc2C2CC2)c(F)c1` [Example 84, N-{4-[5-cyclopropyl-3-(trifluoromethyl)-1H-pyrazol-1-yl]-3-fluorophenyl}-5-methylisoxazole-4-carboxamide], the inhibition at 1 µM is 100%.
The same measure, in the same setting: the figure for `O=C(Cc1ccncc1)Nc1ccc(-n2nc(C(F)(F)F)cc2C2CC2)cc1` [Example 73, N-{4-[5-cyclopropyl-3-(trifluoromethyl)-1H-pyrazol-1-yl]phenyl}-2-(pyridin-4-yl)acetamide hydrochloride] is 68%.
Turning to `Cc1ncsc1C(=O)Nc1cnc(-n2nc(C(F)(F)F)cc2C2CC2)nc1` [Example 129, N-{2-[5-cyclopropyl-3-(trifluoromethyl)-1H-pyrazol-1-yl]pyrimidin-5-yl}-4-methyl thiazole-5-carboxamide], the inhibition at 1 µM stood at 28.3%.
As for `O=C(Nc1c(F)cccc1F)c1ccc(-n2nc(C(F)(F)F)cc2C2CC2)cc1` [Example 79, 4-[5-cyclopropyl-3-(trifluororomethyl)-1H-pyrazol-1-yl]-N-(2,6-difluorophenyl) benzamide], the inhibition at 1 µM came to 100%.
Same read-out and setting: the result for `O=C(Cc1cccnc1)Nc1ccc(-n2nc(C(F)(F)F)cc2C2CC2)cc1` [Example 72, N-{4-[5-cyclopropyl-3-(trifluoromethyl)-1H-pyrazol-1-yl]phenyl}-2-(pyridin-3-yl)acetamide hydrochloride] reads 100%; that for `O=S(=O)(Nc1ccc(-n2nc(C3CC3)cc2C2CC2)cc1)c1ccccc1` [Example 27, N-[4-(3,5-dicyclopropyl-1H-pyrazol-1-yl)phenyl]benzenesulfonamide], 91.2%; that for `Cc1ccccc1C(=O)Nc1ccc(-n2nc(C(F)(F)F)cc2C2CC2)c(F)c1` [Example 86, N-{4-[5-cyclopropyl-3-(trifluoromethyl)-1H-pyrazol-1-yl]-3-fluorophenyl}-2-methylbenzamide], 86.6%.
On to `Cc1nnsc1NC(=O)Nc1ccc(-n2nc(C(F)(F)F)cc2C2CC2)cc1` [Example 75, 1-{4-[5-cyclopropyl-3-(trifluoromethyl)-1H-pyrazol-1-yl]phenyl}-3-(4-methyl-1,2,3-thiadiazol-5-yl)urea], for which the inhibition at 1 µM was determined as 0%.
Same read-out and setting: the figure for `O=C(Nc1ccc(-n2nc(C(F)(F)F)cc2C2CC2)nc1)c1ccccc1Cl` [Example 105, 2-chloro-N-{6-[5-cyclopropyl-3-(trifluoromethyl)-1H-pyrazol-1-yl]pyridin-3-yl}benzamide hydrochloride] is 71.2%; for `O=C(Nc1ccc(-n2nc(C3CC3)cc2C2CC2)cc1)c1c(F)cccc1F` [Example 8, N-[4-(3,5-dicyclopropyl-1H-pyrazol-1-yl)phenyl]-2,6-difluorobenzamide] it is 100%; for `O=C(Nc1ccc(-n2nc(C(F)(F)F)cc2C2CC2)c(F)c1)c1cccc(F)c1F` [Example 87, N-{4-[5-cyclopropyl-3-(trifluoromethyl)-1H-pyrazol-1-yl]-3-fluorophenyl}-2,3-difluorobenzamide] it is 91.6%.
The same measure, in the same setting: the result for `Cc1ncsc1C(=O)Nc1ccc(-n2nc(C(F)(F)F)cc2C(F)F)cc1` [Example 126, N-{4-[5-(difluoromethyl)-3-(trifluoromethyl)-1H-pyrazol-1-yl]phenyl}-4-methyl thiazole-5-carboxamide] reads 100%; that for `O=C(Cc1ccccc1)Nc1ccc(-n2nc(C3CC3)cc2C2CC2)cc1` [Example 19, N-[4-(3,5-dicyclopropyl-1H-pyrazol-1-yl)phenyl]-2-phenylacetamide], 73.5%.
Still for that read-out and setting: the figure for `Cc1ncsc1C(=O)Nc1ccc(-n2nc(C(F)(F)F)c(Cl)c2C2CC2)cc1` [Example 80, N-{4-[4-chloro-5-cyclopropyl-3-(trifluoromethyl)-1H-pyrazol-1-yl]phenyl}-4-methylthiazole-5-carboxamide] is 81.6%; for `Cc1ccccc1C(=O)Nc1ccc(-n2nc(C(F)(F)F)cc2C2CC2)cc1` [Example 60, N-{4-[5-cyclopropyl-3-(trifluoromethyl)-1H-pyrazol-1-yl]phenyl}-2-methylbenzamide] it is 83.7%; for `Cc1nnsc1C(=O)Nc1ccc(-n2nc(C3CC3)c(Cl)c2C2CC2)c(F)c1` [Example 37, N-[4-(4-chloro-3,5-dicyclopropyl-1H-pyrazol-1-yl)-3-fluorophenyl]-4-methyl-1,2,3-thiadiazole-5-carboxamide] it is 82.2%.
As to `Cc1noc(C)c1C(=O)Nc1ccc(-n2nc(C(F)(F)F)cc2C2CC2)c(F)c1` [Example 85, N-{4-[5-cyclopropyl-3-(trifluoromethyl)-1H-pyrazol-1-yl]-3-nuorophenyl}-3,5-dimethylisoxazole-4-carboxamide], the inhibition at 1 µM is 76.6%.
Still for that read-out and setting: the figure for `O=C(CN1CCOCC1)Nc1ccc(-n2nc(C3CC3)cc2C2CC2)cc1` [Example 26, N-[4-(3,5-dicyclopropyl-1H-pyrazol-1-yl)phenyl]-2-morpholinoacetamide] is 43%.
Still for that read-out and setting: the result for `CS(=O)(=O)c1ccc(Cl)c(C(=O)Nc2ccc(-n3nc(C4CC4)cc3C3CC3)cc2)c1` [Example 13, 2-chloro-N-[4-(3,5-dicyclopropyl-1H-pyrazol-1-yl)phenyl)-5-(methylsulfonyl)benzamide] reads 37.2%.
For `Cc1ncsc1CNc1ccc(-n2nc(C(F)(F)F)cc2C2CC2)cc1` [Example 74, 4-[5-cyclopropyl-3-(trifluoromethyl)-1H-pyrazol-1-yl]-N-[(4-methylthiazol-5-yl)methyl]aniline], the inhibition at 1 µM came to 100%.
Same read-out and setting: the result for `Cc1noc(C)c1C(=O)Nc1ccc(-n2nc(C3CC3)cc2C2CC2)nc1` [Example 41, N-[6-(3,5-dicyclopropyl-1H-pyrazol-1-yl)pyridin-3-yl]-3,5-dimethylisoxazole-4-carboxamide] reads 0%; that for `O=C(Nc1ccc(-n2nc(C3CC3)cc2C2CC2)nc1)c1c(Cl)cncc1Cl` [Example 50, 3,5-dichloro-N-[6-(3,5-dicyclopropyl-1H-pyrazol-1-yl)pyridin-3-yl]isonicotinamide hydrochloride], 29.8%; that for `Cc1ncncc1C(=O)Nc1ccc(-n2nc(C3CC3)cc2C2CC2)nc1` [Example 51, N-[6-(3,5-dicyclopropyl-1H-pyrazol-1-yl)pyridin-3-yl]-4-methylpyrimidine-5-carboxamide hydrochloride], 0%.
Take `Cl.O=C(Nc1ccc(-n2nc(C3CC3)cc2C2CC2)c(F)c1)c1ccncc1` [Example 35, N-[4-(3,5-dicyclopropyl-1H-pyrazol-1-yl)-3-fluorophenyl]isonicotinamde hydrochloride]: the “% inhibition (1 uM)” value worked out at 100%.
Take `O=C(Cc1ccccn1)Nc1ccc(-n2nc(C(F)(F)F)c(Cl)c2C2CC2)c(F)c1` [Example 96, N-{4-[4-chloro-5-cyclopropyl-3-(trifluoromethyl)-1H-pyrazol-1-yl]-3-fluorophenyl}-2-(pyridin-2-yl)acetamide hydrochloride]: the inhibition at 1 µM was determined as 18%.
The same measure, in the same setting: the result for `O=C(Nc1ccc(-n2nc(C(F)(F)F)cc2C2CC2)cc1)c1c(F)cccc1F` [Example 62, N-{4-[5-cyclopropyl-3-(trifluoromethyl)-1H-pyrazol-1-yl]phenyl}-2,6-difluorobenzamide] reads 100%; that for `Cc1ncncc1C(=O)Nc1ccc(-n2nc(C3CC3)cc2C2CC2)cc1` [Example 18, N-[4-(3,5-dicyclopropyl-1H-pyrazol-1-yl)phenyl]-4-methylpyrimidine-5-carboxamide], 82.8%; that for `CS(=O)(=O)c1cccc(C(=O)Nc2ccc(-n3nc(C4CC4)cc3C3CC3)cc2)c1` [Example 10], 49.5%.
The same measure, in the same setting: the result for `O=C(Nc1cnc(-n2nc(C(F)(F)F)cc2C2CC2)nc1)c1c(F)cccc1F` [Example 124, N-{2-[5-cyclopropyl-3-(trifluoromethyl)-1H-pyrazol-1-yl]pyrimidin-5-yl}-2,6-difluorobenzamide] reads 86.2%; that for `Cc1ccccc1NC(=O)c1ccc(-n2nc(C3CC3)cc2C2CC2)nc1` [Example 42, 6-(3,5-dicyclopropyl-1H-pyrazol-1-yl)-N-o-tolylnicotinamide], 26.2%; that for `O=C(Nc1ccc(-n2nc(C(F)(F)F)cc2C2CC2)c(F)c1)c1cccnc1` [Example 89, N-{4-[5-cyclopropyl-3-(trifluoromethyl)-1H-pyrazol-1-yl]-3-fluorophenyl}nicotinamide hydrochloride], 100%.

Values taken from patent US10668051B2, “Modulators of calcium release-activated calcium channel” (Rhizen Pharmaceuticals SA, priority 2009, dated 2020).
